Like-named read-outs stand apart in the source and are kept apart here.
Target: SARS-CoV-2 3CL protease (Severe acute respiratory syndrome coronavirus 2, UniProt P0DTD1)
Experiment: Inhibitory activity test against SARS-CoV-2 3CL proteases
Format: biochemical
[1] = read-out: IC50 (50% SARS-CoV-2 3CL protease inhibitory concentration)
[2] = IC50 (50% SARS-CoV-2 3CL protease inhibitory concentration)

Row | Structure (SMILES) | IC50 [1] [nM] | IC50 [2] [nM]
1 | CC1COc2c1c(-c1cc(C#N)ccc1Cl)cc1c2c(=O)n(Cc2ncn(C)n2)c(=O)n1Cc1cc(F)c(F)c(F)c1 (centres unmarked) [Compound I-0438] | 3.5 | –
2 | COc1cc(-c2cc(C(C)=O)ccc2Cl)cc2c1c(=O)n(Cc1ncn(C)n1)c(=O)n2Cc1cc(F)c(F)cc1F [Compound I-0282] | < 100 | –
3 | O=c1[nH]cccc1Cn1c(=O)c2ccc(N3C[C@@H]4CN[C@@H](C4)C3)cc2n(Cc2cc(F)c(F)c(F)c2)c1=O [Compound I-0378] | < 100 | –
4 | Cn1cnc(Cn2c(=O)c3c(F)cc(-c4cc5c(cc4Cl)NC(=O)C54CC4)cc3n(Cc3cc(F)c(F)c(F)c3)c2=O)n1 [Compound I-0119] | 23 | –
5 | O=c1[nH]cccc1Cn1c(=O)c2ccc(N3C[C@@H]4C[C@H]3CN4)cc2n(Cc2cc(F)c(F)c(F)c2)c1=O [Compound I-0141] | < 100 | –
6 | COc1cc(-c2cc(NS(C)(=O)=O)ccc2Cl)cc2c1c(=O)n(-c1cncc(Cl)c1)c(=O)n2Cc1cc(F)c(F)c(F)c1 [Compound I-0079] | < 100 | –
7 | COc1nc(N2CC[C@H](F)C2)cc2c1c(=O)n(Cc1ncn(C)n1)c(=O)n2Cc1cc(F)c(F)c(F)c1 [Compound I-0446] | – | < 100
8 | Cn1cnc(Cn2c(=O)c3c4c(c(N5C[C@H]6C[C@@H]5CN6)cc3n(Cc3cc(F)c(F)c(F)c3)c2=O)CCO4)n1 [Compound I-0429] | < 100 | –
9 | Cn1cnc(Cn2c(=O)c3nnc(N4CC[C@@H](F)C4)cc3n(Cc3cc(F)c(F)c(F)c3)c2=O)n1 [Compound I-0935] | 1000 to 10000 | –
10 | NC(=O)c1ccc(Cl)c(-c2ccc3c(=O)n(Cc4ccc[nH]c4=O)c(=O)n(Cc4cc(F)c(F)c(F)c4)c3c2)c1 [Compound I-0296] | < 100 | –
11 | Cn1cnc(Cn2c(=O)c3c(Cl)cc(-c4cc(C#N)ccc4Cl)cc3n(Cc3cc(F)c(F)c(Cl)c3)c2=O)n1 [Compound I-0175] | < 100 | –
12 | [2H]C1([2H])N(c2cc3c(c(OC)n2)c(=O)n(Cc2ncn(C)n2)c(=O)n3Cc2cc(F)c(F)c(F)c2)C([2H])([2H])C([2H])([2H])C1([2H])[2H] [Compound I-0466] | < 100 | –
13 | COc1cc(-c2cc(CC(=O)NCCN(C)C)ccc2Cl)cc2c1c(=O)n(-c1cncc(Cl)c1)c(=O)n2Cc1cc(Cl)ccc1C [Compound I-0189] | 7.1 | –
14 | COc1cc(-c2c(Cl)ccc3ncccc23)cc2c1c(=O)n(Cc1ncn(C)n1)c(=O)n2Cc1cc(F)c(F)c(F)c1 [Compound I-0124] | < 100 | –
15 | COc1cc(-c2cc(C(=O)NCCCO)ccc2Cl)cc2c1c(=O)n(-c1cncc(C)c1)c(=O)n2Cc1ccc(F)c(C#N)c1 [Compound I-0193] | 9 | –
16 | NC(=O)c1ccc(Cl)c(-c2nc3c(cc2F)c(=O)n(Cc2ccc[nH]c2=O)c(=O)n3Cc2cc(F)c(F)c(F)c2)c1 [Compound I-0301] | 98 | –
17 | Cn1cnc(Cn2c(=O)c3cc(F)c(-c4cc5c(cc4Cl)NC(=O)C5)cc3n(Cc3cc(F)c(F)c(F)c3)c2=O)n1 [Compound I-0249] | 33 | –
18 | O=c1[nH]cccc1Cn1c(=O)c2ccc(N3[C@@H]4CC[C@H]3CNC4)cc2n(Cc2cc(F)c(F)c(F)c2)c1=O [Compound I-0379] | – | < 100
19 | COc1cc(-c2cc(-c3ncc[nH]3)ccc2Cl)cc2c1c(=O)n(Cc1ncn(C)n1)c(=O)n2Cc1cc(F)c(F)c(F)c1 [Compound I-0123] | < 100 | –
20 | COc1cc(-c2nc(NS(C)(=O)=O)ccc2Cl)cc2c1c(=O)n(-c1cncc(C)c1)c(=O)n2Cc1cc(F)c(F)c(F)c1 [Compound I-0078] | < 100 | –
21 | COc1nc(-c2cc(C#N)ccc2Cl)cc2c1c(=O)n(Cc1ncn(C)n1)c(=O)n2Cc1cc(F)c(F)c(F)c1 [Compound I-0176] | 33 | –
22 | COc1nc(N2CC[C@@H](O)C2)cc2c1c(=O)n(Cc1ncn(C)n1)c(=O)n2Cc1cc(F)c(F)c(Cl)c1 [Compound I-0388] | 20 | –
23 | Cn1cnc(Cn2c(=O)c3c(Cl)cc(-c4cc5c(cc4Cl)NC(=O)C5)cc3n(Cc3cc(F)c(F)c(Cl)c3)c2=O)n1 [Compound I-0171] | 3.2 | –

Source: US20240400560A1, “BICYCLIC HETEROCYCLIC DERIVATIVE HAVING VIRAL GROWTH INHIBITORY ACTIVITY AND PHARMACEUTICAL COMPOSITION CONTAINING SAME” (Shionogi & Co., Ltd., priority 2021, published 2024)
